Test results as given in paper PMC10728220, “Novel 3-(pyrazol-4-yl)-2-(1H-indole-3-carbonyl)acrylonitrile derivatives induce intrinsic and extrinsic apoptotic death mediated P53 in HCT116 colon carcinoma” (Scientific Reports, 2023).
In brackets after ≈: the same amount, converted by molar mass.

Experiments:
[1] = test system: lung carcinoma (A549); test: Cytotoxic MTT assay, A549; format: cell-based; settings: Homo sapiens, 48 h treatment
Experimental: (§1) MTT protocol was performed to study the viability of cells after treatment with the tested compounds. The studied cell lines (A549 and HCT116) were cultured and grown in RPMI‐1640 media, while HFB4 cells were reserved in DMEM‐F12 media. Both media were supplemented with 10% FBS, 1% L‐glutamine, and 1% antibiotic–antimycotic mixture. The cell lines were grown at conditions of 37 °C and 5% CO2. 10 × 10^3 of A549, and HCT116 cells and the same count of normal melanocytes (HFB4) were cultured in a 96‐well plate. The selected cultured cells were kept at 37°C and 5% CO2 overnight. Then, the medium was discarded after 24 h of incubation, and 100 µL from different concentrations of the studied compounds dissolved in fresh medium without serum, with final concentrations of 100, 50, 25, 12.5, 6.25, 3.125, 1.56, and 0.78 µg/mL was added. The treated cells were then incubated for 48 h. After that, 50 µL of MTT was added into each well for 4 h for the formazan crystals to be formed. Finally, 200 µl of 10% sodium dodecyl sulphate (SDS) was added to each well, and plates were kept at room temperature overnight to allow the reaction to be stopped. The optical density at 575 nm was read using a microplate multi-well reader, and the percentage of cell viability was calculated. The dose–response curve was drawn to calculate the IC50 values for each compound using the prism GraphPad 5 program, [84]. 5 Fluorouracil, a commercial anticancer drug was used as a reference drug (positive control). Negative untreated cell control was used in this assay.

[2] = test system: colorectal carcinoma (HCT116); test: Cytotoxic MTT assay, HCT116; format: cell-based, human
Experimental: as §1

[3] = test system: Bax; test: RT-PCR gene expression, Bax, in HCT116; format: cell-based, human; settings: HCT116, 6.76 µg/mL, 48 h, relative to untreated control
Experimental: In this current research, relative gene expression related to apoptosis should be studied well because they were very interesting to understand the effect of our selected compound on this important biological process. HCT116 cells were treated with chalcone 7f (6.76µg/mL) for 48 h, and then subjected to qPCR analysis regarding control samples. The effect of chalcone 7f on the expression level of (Bax, p53, Bcl2, and CDK4) genes was assessed using the qPCR technique. […] As indicated in this schematic diagram, the expression of apoptotic genes (Bax and P53) was enhanced by the effect of chalcone 7f to reach (3.662, and 5.435) respectively, relative to the control.
Total RNA was extracted from the compound 7f-treated HCT116 cells and the untreated cells using the RNA Purification Kit GeneJET (Thermo scientific, ON, Canada) 0.1 µg of the extracted RNA was reverse transcribed into complementary DNA (cDNA) using High-Capacity cDNA Reverse Transcription Kit (Thermo Scientific, ON, Canada). qPCR was done using Brilliant SYBR Green qPCR master mix (Applied Biosystems, San Francisco, CA, USA) in One Step Plus Real-Time PCR System (Applied Biosystems, San Francisco, CA, USA). […] The relative gene expression was determined using the 2^−ΔΔCt equation after normalization to the expression of β-actin (housekeeping gene) (Qiagen, CA, USA)(10 pmol/µL)[85], [86]. […]

[4] = test system: HCT116 cells; test: Flow cytometric analysis of apoptosis (Annexin V-FITC/PI); format: cell-based, human; settings: HCT116, 7f treated
Experimental: Chalcone 7f was selected for more investigations, in attempts to find its molecular action on cancer cells. It illustrated high and very interesting cytotoxicity toward the tested colon cancer cell line (HCT116) as mentioned in the above MTT assay data (Table 1). A flow cytometric report was utilized in this recent paper to investigate the effect of our novel acrylonitrile compound 7f on the cell cycle, HCT116 cells were treated with compound 7f at a dose of (6.76 µg/mL) for 48 h and subjected to flow cytometric analysis.
The percentage of apoptotic cells was detected using Annexin V-FITC kit catalogue number (#K101-25). Briefly, 5 × 10^5 of HCT116 cells were collected by centrifugation. Then, the cell pellet was suspended in 500 µL of 1X Binding Buffer. Afterward, 5 µL of Annexin V-FITC and 5 µL of propidium iodide were added to cells and kept at room temperature for 5 min in the dark[89]–[91]. Finally, the percentage of the apoptotic cells was detected by flow cytometry using the FITC signal detector(usually FL-1) and PI staining by the phycoerythrin emission signal detector (usually FL-2).

Structure (SMILES): N#C/C(=C\c1cn(-c2ccccc2)nc1-c1ccc([N+](=O)[O-])cc1)C(=O)c1c[nH]c2ccccc12 [Compound 7f, (E)-2-(1H-Indole-3-carbonyl)-3-(3-(4-nitrophenyl)-1-phenyl-1H-pyrazol-4-yl)acrylonitrile]
- IC50 [1]: > 100 µg/mL
- Selectivity index (SI) = IC50 in normal cells/IC50 in tumor cells ([2]; HFB4 versus HCT116): 8.4
- IC50 ([2]; Homo sapiens, HCT-116, MTT, 48 h treatment): 6.76 µg/mL (≈ 14.7 µM)
- RT-PCR fold change Bax [3]: 3.662 fold
- early apoptotic induction ([4]; control 0.32%): 21.38%
- necrosis ([4]; control 1.12%): 6.82%
